Measured values: US12083227B2, “Solid pharmaceutical formulations for treating endometriosis, uterine fibroids, polycystic ovary syndrome or adenomyosis” (priority 2017, dated 2024)

Tests used:
[1] = pharmacokinetic properties of elagolix in healthy subjects; type: in vivo, human; conditions: minor pathways include CYP2D6, CYP2C8 and UGTs
[2] = system: endometriosis with associated pain in premenopausal women; experiment: Study EM-I (placebo-controlled) and its extension; type: in vivo, human; conditions: Month 6 and Month 12
Description: Each placebo-controlled study assessed the reduction in endometriosis-associated pain over 6 months of treatment. More than 75 percent of women who completed Study EM-I and EM-II enrolled in the extension studies for an additional 6 month treatment period. Subjects were followed for up to 12 months post-treatment. The co-primary efficacy endpoints were the proportion of responders for dysmenorrhea and pelvic pain not related to menses (also known as non-menstrual pelvic pain [NMPP]) at Month 3 compared to placebo. The primary analysis independently evaluated these endpoints using a daily diary that asked patients to assess their pain and its impact on their daily activities, over the previous 24 hours. […] Women were defined as responders if they experienced clinically meaningful reduction in dysmenorrhea and/or NMPP with no increased analgesic use for endometriosis associated pain. Dyspareunia was evaluated as a secondary endpoint using the Daily Endometriosis Pain Impact Scale. Endometrial biopsies were performed in subjects in Study EM-I and its extension at Month 6 and Month 12.

[3] = lactation study in rats (elagolix in diet through gestation and lactation); type: in vivo, rat; conditions: dams 400 mg/kg daily in diet
Procedure: Pregnant rats were given diet containing elagolix throughout the gestation and lactation periods to achieve a daily elagolix dose of 400 mg/kg. During nursing the dams and litters were divided into restricted feeding and non-restricted groups to determine whether elagolix was secreted in the mother's milk. […] In pups of the non-restricted feeding group, elagolix plasma concentrations were measurable and approximately 1% of the mother's plasma concentrations.

[4] = system: fertility and reproductive organs of rats; experiment: fertility study and repeat-dose study in rats; type: in vivo, rat
Description: Based on pharmacologic actions of elagolix in humans a reversible effect on fertility may be expected in women.

[5] = system: fatigue in women with moderate to severe endometriosis-related pain; experiment: Phase III study of fatigue (PROMIS Fatigue SF-6a) in endometriosis pain; type: in vivo, human
Procedure: A Phase III study was conducted to assess the effects of elagolix for clinically meaningful reductions in pain and other symptoms. Data provided examined the impact of elagolix on fatigue in women with moderate to severe endometriosis-related pain. […] Fatigue was assessed using the Patient Reported Outcome Measurement Information System (PROMIS®), Fatigue Short Form (SF) 6a. Six items assessed a range of self-reported symptoms from mild, subjective feelings of tiredness to overwhelming, sustained sense of exhaustion that likely decreases one's ability to execute daily activities and function normally. The domain was divided into the experience of fatigue (frequency, duration and intensity) and impact of fatigue on physical, mental and social activities. All items assessed fatigue over the previous seven days. Responses to each question was filed on a 5-item Likert scale: 1—“Not at all”; 2—“A little bit”; 3—“Somewhat”; 4—“Quite a bit”; and 5—“Very much.” The questionnaire was administered at baseline and months 1, 3, and 6. Lower scores indicated less fatigue. Post-hoc, Fatigue SF-6a raw scores were converted to T-scores. The T-score rescales […] the raw score into a standardized score such that the general population has a mean of 50 and a standard deviation (SD) of 10. Analysis: […] ANCOVA controlled for treatment as main effect. Baseline Fatigue SF-6a T-score included as a covariate.

SMILES: COc1cccc(-c2c(C)n(Cc3c(F)cccc3C(F)(F)F)c(=O)n(C[C@H](NCCCC(=O)O)c3ccccc3)c2=O)c1F [elagolix, 4-((R)-2-[5-(2-fluoro-3-methoxy-phenyl)-3-(2-fluoro-6-trifluoromethyl-benzyl)-4-methyl-2,6-dioxo-3,6-dihydro-2H-pyrimidin-1-yl]-1-phenyl-ethylamino)-butyric acid]
- Metabolism [1]: CYP3A (major) Minor
- endometrial biopsy findings post-baseline (hyperplasia or cancer) [2]: no abnormal biopsy findings
- plasma concentrations in pups relative to the mother's plasma concentrations ([3]; rat pups of non-restricted feeding group): approximately 1%
- plasma concentrations in pups ([3]; rat pups of restricted feeding litters, post natal day 10 and 20): not measurable
- effect on fertility ([4]; fertility study, 50, 150, 300 mg/kg/day): no effect
- ovary findings ([4]; repeat-dose study, 600, 800 mg/kg/day): involution and a decrease in corpora lutea in ovaries
- reduction in fatigue (PROMIS Fatigue SF-6a T-Score) ([5]; 200 mg, as early as Month 1): statistically significant reduction
- PROMIS Fatigue SF-6a T-Score relative to placebo ([5]; both doses (150 mg QD, 200 mg BID) at Months 3 and 6): Statistically significant reductions
